Experimental data from ChEMBL document CHEMBL1201862, “PubChem BioAssay data set” (2004).
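48-hour exposure; five concentrations; linearly interpolated endpoints. Here, GI50 denotes the concentration required for 50% inhibition of growth.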 Calls of active or inactive are those of the source. No stated cut-off is given here; in the data, active = GI50 up to about 1.1 µM and inactive = higher.

Legend:
Assay in all cases: DTP human tumour cell line panel, 48 h
[1] = system: 786-0
[2] = system: COLO 205
[3] = system: HCT-15
[4] = system: HL-60
[5] = system: HT-29
[6] = system: IGROV-1
[7] = system: K562
[8] = system: LOX IMVI
[9] = system: Malme-3M
[10] = system: NCI-H226
[11] = system: SK-MEL-28
[12] = system: SK-MEL-2
[13] = system: SNB-75
[14] = system: SR
[15] = system: SW-620
[16] = system: NCI-H460
[17] = system: SN12C

| SMILES | GI50 [1] | GI50 [2] | GI50 [3] [µM] | GI50 [4] | GI50 [5] | GI50 [6] | GI50 [7] | GI50 [8] | GI50 [9] | GI50 [10] | GI50 [11] | GI50 [12] | GI50 [13] | GI50 [14] | GI50 [15] | GI50 [16] | GI50 [17] |
| --- | --- | --- | --- | --- | --- | --- | --- | --- | --- | --- | --- | --- | --- | --- | --- | --- | --- |
| CC1=C(O)C(=O)C2C(=O)C1C1Cc3ccccc3C21 (configuration not stated) | > 100 µM (inactive) | > 100 µM (inactive) | > 100 | > 100 µM (inactive) | > 100 µM (inactive) | > 100 µM (inactive) | > 100 µM (inactive) | > 100 µM (inactive) | > 100 µM (inactive) | > 100 µM (inactive) | > 100 µM (inactive) | > 100 µM (inactive) | 60.5 µM (inactive) | > 100 µM (inactive) | > 100 µM (inactive) |  |  |
| CC1=C(c2cc(C(=O)Nc3ccc(Cl)c(Cl)c3)nc(N)n2)Sc2ccccc2N1 | > 100 µM (inactive) | > 100 µM (inactive) | > 100 | > 100 µM (inactive) | > 100 µM (inactive) | > 100 µM (inactive) | 62.5 µM (inactive) | > 100 µM (inactive) | > 100 µM (inactive) | > 100 µM (inactive) | > 100 µM (inactive) | > 100 µM (inactive) | > 100 µM (inactive) | > 100 µM (inactive) | > 100 µM (inactive) | > 100 µM (inactive) | > 100 µM (inactive) |
| O=C(O)c1c2c(c(C(=O)O)c3ccccc13)-c1ccccc1-2 | 36.8 µM (inactive) | 71.3 µM (inactive) |  | 36.4 µM (inactive) | 47.4 µM (inactive) | > 10 µM (inactive) | 33.6 µM (inactive) | 38.4 µM (inactive) | 31 µM (inactive) | 34 µM (inactive) | 20.3 µM (inactive) | 33.3 µM (inactive) | 36.7 µM (inactive) | 55.6 µM (inactive) | 36.8 µM (inactive) |  | 35.1 µM (inactive) |
| CC1=CC(=O)c2c(C=O)c(O)c(O)c(C(C)C)c2C1=O | 19.8 µM (inactive) | 25.1 µM (inactive) | 26.2 | 25.6 µM (inactive) |  | 22.5 µM (inactive) | 26.1 µM (inactive) | 14.9 µM (inactive) | 22.9 µM (inactive) | 10.6 µM (inactive) | 34 µM (inactive) | 23.3 µM (inactive) | 40.7 µM (inactive) | 22.8 µM (inactive) |  | 28.8 µM (inactive) | 35.1 µM (inactive) |
| O=C1CC(c2ccccc2)NCN1 (configuration not stated) | > 100 µM (inactive) | > 100 µM (inactive) | > 100 | > 100 µM (inactive) | > 100 µM (inactive) | > 100 µM (inactive) | > 100 µM (inactive) | > 100 µM (inactive) | > 100 µM (inactive) | > 100 µM (inactive) | > 100 µM (inactive) | > 100 µM (inactive) | > 100 µM (inactive) | > 100 µM (inactive) | > 100 µM (inactive) |  | > 100 µM (inactive) |
| COc1cc2c(cc1OC)[Se]c1cc(OC)c(OC)cc1[Se]2 | > 10 µM (inactive) | > 10 µM (inactive) | 5.3 | 3.93 µM (inactive) | 6.81 µM (inactive) | > 10 µM (inactive) | 6.64 µM (inactive) | 80 µM (inactive) | > 10 µM (inactive) | > 10 µM (inactive) | > 10 µM (inactive) | > 10 µM (inactive) | 6.84 µM (inactive) | 4.74 µM (inactive) | > 10 µM (inactive) | > 10 µM (inactive) | > 10 µM (inactive) |
| COc1c(O)c2c3c(cc(C)cc3c1C(C)C)OC2 | > 100 µM (inactive) | > 100 µM (inactive) | > 100 | > 100 µM (inactive) | > 100 µM (inactive) | > 100 µM (inactive) | > 100 µM (inactive) | > 100 µM (inactive) | > 100 µM (inactive) | > 100 µM (inactive) | > 100 µM (inactive) | > 100 µM (inactive) | > 100 µM (inactive) | > 100 µM (inactive) | > 100 µM (inactive) | > 100 µM (inactive) | > 100 µM (inactive) |
